For 15 compounds, inhibition and IC50 results are on record in ChEMBL document CHEMBL3217494, “Selective inhibition of EGFR and VEGFR2 tyrosine kinases controlled by a boronic acid substituent on 4-anilinoquinazolines” (Medchemcomm, 2010).

Active and inactive are the calls of the source. The rule behind the calls is not given here.

Test [1] addresses T1, Vascular endothelial growth factor receptor 2 (Homo sapiens, UniProt P35968). Put plainly: Inhibition of VEGF-induced KDR phosphorylation in human HUVEC cells at 1 uM by immunoblot analysis. The test is classed as cell-based.
Test [2] addresses Vascular endothelial growth factor receptor 1 (Homo sapiens, UniProt P17948). Put plainly: Inhibition of Flt-1 catalytic domain (unknown origin) assessed as reduction of poly(Glu:Tyr) substrate phosphorylation after 20 mins by ELISA.
Test [3] concerns the target T2, Epidermal growth factor receptor (Homo sapiens, UniProt P00533). Put plainly: Inhibition of EGF-induced EGFR autophosphorylation in human A431 cells at 1 uM by immunoblot analysis. The test is classed as cell-based. To be noted: A-431.
In test [4] the target is T2, Epidermal growth factor receptor. Put plainly: Inhibition of EGFR in human A431 cells assessed as decrease in EGF-induced ERK phosphorylation at 1 uM by immunoblot analysis. The settings on record: A-431. Format: cell-based.
Test [5] has the same target. Put plainly: Inhibition of EGFR catalytic domain (unknown origin) assessed as reduction of poly(Glu:Tyr) substrate phosphorylation after 20 mins by ELISA.
Test [6] has as its target T1, Vascular endothelial growth factor receptor 2. Put plainly: Inhibition of KDR catalytic domain (unknown origin) assessed as reduction of poly(Glu:Tyr) substrate phosphorylation after 20 mins by ELISA.
Test [7] addresses Receptor tyrosine-protein kinase erbB-2 (Homo sapiens, UniProt P04626). Put plainly: Inhibition of HER2 catalytic domain (unknown origin) assessed as reduction of poly(Glu:Tyr) substrate phosphorylation after 20 mins by ELISA.
Test [8] concerns the target T2, Epidermal growth factor receptor. As to the kind of experiment: Inhibition of EGFR in human A431 cells assessed as decrease in EGF-induced Akt phosphorylation at 1 uM by immunoblot analysis. The settings on record: A-431. Format: cell-based.

T2 sequence (P00533 whole entry): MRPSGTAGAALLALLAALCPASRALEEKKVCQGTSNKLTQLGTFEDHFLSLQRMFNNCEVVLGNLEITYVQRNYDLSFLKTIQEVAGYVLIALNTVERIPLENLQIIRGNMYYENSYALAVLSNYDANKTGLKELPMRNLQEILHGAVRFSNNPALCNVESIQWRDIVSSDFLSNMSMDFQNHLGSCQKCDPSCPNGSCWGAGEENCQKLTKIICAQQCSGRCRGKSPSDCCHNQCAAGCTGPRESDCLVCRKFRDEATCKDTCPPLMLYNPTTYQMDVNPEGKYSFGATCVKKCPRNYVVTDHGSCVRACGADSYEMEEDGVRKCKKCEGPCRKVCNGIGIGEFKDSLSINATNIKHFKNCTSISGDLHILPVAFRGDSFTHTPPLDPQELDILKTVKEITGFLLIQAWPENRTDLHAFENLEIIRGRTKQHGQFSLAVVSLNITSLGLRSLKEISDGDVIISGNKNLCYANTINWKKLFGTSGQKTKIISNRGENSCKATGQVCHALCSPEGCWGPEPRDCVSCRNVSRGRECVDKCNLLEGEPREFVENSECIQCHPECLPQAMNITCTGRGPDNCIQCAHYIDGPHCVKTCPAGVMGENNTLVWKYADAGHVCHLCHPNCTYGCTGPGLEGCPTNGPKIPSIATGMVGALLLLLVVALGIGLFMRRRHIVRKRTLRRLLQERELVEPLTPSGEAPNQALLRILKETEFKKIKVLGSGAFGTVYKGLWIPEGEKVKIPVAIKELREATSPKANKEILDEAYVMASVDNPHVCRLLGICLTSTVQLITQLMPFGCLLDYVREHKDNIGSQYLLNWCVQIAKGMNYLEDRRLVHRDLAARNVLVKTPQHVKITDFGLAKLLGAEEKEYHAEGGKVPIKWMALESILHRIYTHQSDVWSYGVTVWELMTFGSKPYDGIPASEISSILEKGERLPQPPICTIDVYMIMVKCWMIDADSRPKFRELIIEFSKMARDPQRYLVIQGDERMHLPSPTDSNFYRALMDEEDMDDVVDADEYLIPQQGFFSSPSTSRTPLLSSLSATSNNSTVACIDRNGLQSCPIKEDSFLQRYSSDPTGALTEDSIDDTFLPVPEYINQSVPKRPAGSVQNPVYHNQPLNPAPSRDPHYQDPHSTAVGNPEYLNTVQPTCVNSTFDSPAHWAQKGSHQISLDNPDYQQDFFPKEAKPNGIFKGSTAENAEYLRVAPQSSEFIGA
T1 sequence (P35968 whole entry, the tested form may be a part): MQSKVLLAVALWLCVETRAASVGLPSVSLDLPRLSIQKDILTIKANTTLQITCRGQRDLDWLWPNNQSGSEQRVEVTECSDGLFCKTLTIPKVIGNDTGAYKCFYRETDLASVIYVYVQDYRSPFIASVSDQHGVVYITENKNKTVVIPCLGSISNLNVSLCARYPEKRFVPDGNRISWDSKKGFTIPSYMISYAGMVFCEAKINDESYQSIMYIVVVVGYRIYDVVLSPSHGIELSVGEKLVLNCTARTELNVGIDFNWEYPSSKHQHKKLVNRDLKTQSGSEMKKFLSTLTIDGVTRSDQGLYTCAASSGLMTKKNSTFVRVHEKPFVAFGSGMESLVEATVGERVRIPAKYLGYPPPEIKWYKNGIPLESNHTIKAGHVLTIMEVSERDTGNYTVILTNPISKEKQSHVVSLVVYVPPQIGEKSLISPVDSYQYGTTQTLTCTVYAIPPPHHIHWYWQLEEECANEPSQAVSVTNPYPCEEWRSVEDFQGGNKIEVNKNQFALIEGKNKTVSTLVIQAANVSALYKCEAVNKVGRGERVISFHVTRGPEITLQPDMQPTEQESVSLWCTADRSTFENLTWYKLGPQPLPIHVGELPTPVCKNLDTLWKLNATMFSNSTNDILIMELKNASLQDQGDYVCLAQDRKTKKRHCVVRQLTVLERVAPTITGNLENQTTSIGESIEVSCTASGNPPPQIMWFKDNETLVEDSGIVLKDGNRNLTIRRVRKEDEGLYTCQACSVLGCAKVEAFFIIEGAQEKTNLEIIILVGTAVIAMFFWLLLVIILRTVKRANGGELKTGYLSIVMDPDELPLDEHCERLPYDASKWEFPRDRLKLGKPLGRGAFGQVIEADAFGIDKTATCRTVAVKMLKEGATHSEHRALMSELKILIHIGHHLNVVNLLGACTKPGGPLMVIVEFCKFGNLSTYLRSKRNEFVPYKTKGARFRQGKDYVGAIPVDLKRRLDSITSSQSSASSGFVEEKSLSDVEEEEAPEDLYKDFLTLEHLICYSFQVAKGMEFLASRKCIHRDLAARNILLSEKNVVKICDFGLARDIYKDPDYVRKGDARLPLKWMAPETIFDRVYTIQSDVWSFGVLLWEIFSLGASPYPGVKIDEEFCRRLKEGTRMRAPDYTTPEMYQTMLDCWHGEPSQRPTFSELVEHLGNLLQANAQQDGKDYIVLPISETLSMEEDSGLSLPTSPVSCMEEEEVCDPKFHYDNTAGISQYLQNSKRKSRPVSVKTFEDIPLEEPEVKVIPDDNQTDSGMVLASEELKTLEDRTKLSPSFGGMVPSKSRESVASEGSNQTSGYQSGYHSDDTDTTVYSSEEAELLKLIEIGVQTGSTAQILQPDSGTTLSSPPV
Sequence of Receptor tyrosine-protein kinase erbB-2 (P04626 whole entry, the tested form may be a part): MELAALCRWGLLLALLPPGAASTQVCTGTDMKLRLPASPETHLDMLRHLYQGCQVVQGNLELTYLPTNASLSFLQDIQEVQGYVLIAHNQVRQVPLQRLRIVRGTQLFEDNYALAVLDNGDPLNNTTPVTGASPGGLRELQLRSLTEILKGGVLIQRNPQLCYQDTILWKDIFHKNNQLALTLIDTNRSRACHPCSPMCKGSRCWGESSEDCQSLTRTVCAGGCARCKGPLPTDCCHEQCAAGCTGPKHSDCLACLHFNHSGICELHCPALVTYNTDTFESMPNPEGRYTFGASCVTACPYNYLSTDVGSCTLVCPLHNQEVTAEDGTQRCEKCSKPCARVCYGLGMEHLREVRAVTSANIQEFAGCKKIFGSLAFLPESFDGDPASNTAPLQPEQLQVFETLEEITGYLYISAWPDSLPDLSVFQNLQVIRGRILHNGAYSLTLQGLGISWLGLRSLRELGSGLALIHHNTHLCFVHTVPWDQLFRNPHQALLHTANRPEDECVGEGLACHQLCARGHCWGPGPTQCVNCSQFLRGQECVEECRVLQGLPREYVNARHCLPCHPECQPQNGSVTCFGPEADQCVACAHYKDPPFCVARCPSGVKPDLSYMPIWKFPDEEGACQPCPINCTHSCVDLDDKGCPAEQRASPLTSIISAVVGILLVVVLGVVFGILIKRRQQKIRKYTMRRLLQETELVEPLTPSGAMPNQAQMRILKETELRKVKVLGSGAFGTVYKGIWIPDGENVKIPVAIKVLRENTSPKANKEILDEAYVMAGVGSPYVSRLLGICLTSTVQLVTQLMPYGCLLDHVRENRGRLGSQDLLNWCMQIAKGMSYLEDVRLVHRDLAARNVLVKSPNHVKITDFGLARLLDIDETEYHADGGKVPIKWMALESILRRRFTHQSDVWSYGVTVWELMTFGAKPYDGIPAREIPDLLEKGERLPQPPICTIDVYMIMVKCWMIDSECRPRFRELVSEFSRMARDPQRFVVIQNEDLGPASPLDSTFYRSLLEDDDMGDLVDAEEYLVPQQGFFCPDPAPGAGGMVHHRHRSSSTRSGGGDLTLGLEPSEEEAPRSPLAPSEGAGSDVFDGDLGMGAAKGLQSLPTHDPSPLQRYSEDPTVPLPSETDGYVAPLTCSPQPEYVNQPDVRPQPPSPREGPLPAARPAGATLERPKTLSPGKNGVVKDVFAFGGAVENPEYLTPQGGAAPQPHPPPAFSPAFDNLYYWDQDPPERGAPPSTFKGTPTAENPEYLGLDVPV

With `COCCOc1cc2ncnc(Nc3cccc(B(O)O)c3)c2cc1OCCOC`, the inhibition entry in test [1] is “Active”. Moreover, the IC50 in test [2] is over 1000 nM; in test [5], over 1000 nM; in test [6], 190 nM; in test [7], over 1000 nM. Besides, the inhibition result in test [3], in test [4] and in test [8] was “inactive” each time.

Turning to `OB(O)c1ccc2ncnc(Nc3cccc(Cl)c3)c2c1`, the IC50 in test [2] was over 1000 nM; in test [5], 650 nM; in test [6], over 1000 nM; in test [7] it was over 1000 nM. Further, the inhibition entry in test [3], in test [4] and in test [8] was “Active” throughout.

As for `COc1cc2ncnc(Nc3ccc(B(O)O)cc3)c2cc1OC`, the inhibition result in test [1], in test [3], in test [4] and in test [8] was “inactive” each time. For the same compound, the IC50 in test [2] is over 1000 nM; in test [5], over 1000 nM; in test [6], 36 nM; in test [7], over 1000 nM.

For `COc1cc2ncnc(Nc3cccc(Cl)c3)c2cc1B(O)O`, the IC50 in test [2] was over 1000 nM; in test [5] it was 460 nM; in test [6], over 1000 nM; in test [7], over 1000 nM. Also, the inhibition result in test [3], in test [4] and in test [8] was “Active” each time.

As to `COCCOc1cc2ncnc(Nc3ccc(B(O)O)cc3)c2cc1OCCOC`, the inhibition entry in test [1] is “Active”. Moreover, the IC50 in test [2] is over 1000 nM; in test [5], over 1000 nM; in test [6], 37 nM; in test [7] it was over 1000 nM. Besides, the inhibition result in test [3], in test [4] and in test [8] was “inactive” each time.

Consider `COc1cc2ncnc(Nc3ccc(F)c(Cl)c3)c2cc1B1OC(C)(C)C(C)(C)O1`, for which the IC50 in test [2] was over 1000 nM; in test [5], 520 nM; in test [6], over 1000 nM; in test [7], over 1000 nM. Further, the inhibition result in test [3], in test [4] and in test [8] was “Active” throughout.

In the case of `CC1(C)OB(c2ccc3ncnc(Nc4ccc(F)c(Cl)c4)c3c2)OC1(C)C`, the IC50 in test [2] is over 1000 nM; in test [5], 570 nM; in test [6] it was over 1000 nM; in test [7], over 1000 nM. Moreover, the inhibition entry in test [3], in test [4] and in test [8] was “Active” each time.

For `COc1cc2ncnc(Nc3cccc(Cl)c3)c2cc1B1OC(C)(C)C(C)(C)O1`, the IC50 in test [2] is over 1000 nM; in test [5], 490 nM; in test [6], over 1000 nM; in test [7], over 1000 nM. For the same compound, the inhibition result in test [3], in test [4] and in test [8] was “Active” each time.

As to `COCCOc1cc2ncnc(Nc3cccc(B(O)O)c3)c2cc1OC`, the inhibition entry in test [1] is “Active”. Further, the IC50 in test [2] was over 1000 nM; in test [5], over 1000 nM; in test [6], 180 nM; in test [7], over 1000 nM. The inhibition result in test [3], in test [4] and in test [8] was “inactive” each time.

On to `OB(O)c1ccc2ncnc(Nc3ccc(F)c(Cl)c3)c2c1`, for which the IC50 in test [2] is over 1000 nM; in test [5], 800 nM; in test [6] it was over 1000 nM; in test [7] it was over 1000 nM. Moreover, the inhibition entry in test [3], in test [4] and in test [8] was “Active” throughout.

Take `CC1(C)OB(c2ccc3ncnc(Nc4cccc(Cl)c4)c3c2)OC1(C)C`: the IC50 in test [2] was over 1000 nM; in test [5] it was 590 nM; in test [6], over 1000 nM; in test [7], over 1000 nM. Moreover, the inhibition result in test [3], in test [4] and in test [8] was “Active” each time.

On to `COCCOc1cc2ncnc(Nc3ccc(B(O)O)cc3)c2cc1OC`, for which the inhibition result in test [1] is “Active”. Further, the IC50 in test [2] is over 1000 nM; in test [5], over 1000 nM; in test [6], 860 nM; in test [7] it was over 1000 nM. Further, the inhibition entry in test [3], in test [4] and in test [8] was “inactive” throughout.

On to `COc1cc2ncnc(Nc3ccc(F)c(Cl)c3)c2cc1B(O)O`, for which the IC50 in test [2] is over 1000 nM; in test [5] it was 510 nM; in test [6], over 1000 nM; in test [7], over 1000 nM. Besides, the inhibition result in test [3], in test [4] and in test [8] was “Active” in each case.

Regarding `COc1cc2ncnc(Nc3cccc(B(O)O)c3)c2cc1OC`, the inhibition result in test [1], in test [3], in test [4] and in test [8] was “inactive” in each case. Further, the IC50 in test [2] is over 1000 nM; in test [5], over 1000 nM; in test [6], 390 nM; in test [7], over 1000 nM.

Consider `O=C(Nc1cccc(C(F)(F)F)c1)c1ccccc1NCc1ccncc1`, for which, in test [7], the IC50 was over 1000 nM.
